Assay results: patent US20040171073A1, “Compounds for modulation of cholesterol transport” (Massachusetts Institute of Technology, priority 2002, published 2004)

Biological target: T1, murine SR-BI (Mus musculus, UniProt Q61009)
T1 construct: expressed in transfected cells; host or cells: ldlA-7 (LDL receptor deficient Chinese hamster ovary cells)
T1 sequence (Q61009 1-509): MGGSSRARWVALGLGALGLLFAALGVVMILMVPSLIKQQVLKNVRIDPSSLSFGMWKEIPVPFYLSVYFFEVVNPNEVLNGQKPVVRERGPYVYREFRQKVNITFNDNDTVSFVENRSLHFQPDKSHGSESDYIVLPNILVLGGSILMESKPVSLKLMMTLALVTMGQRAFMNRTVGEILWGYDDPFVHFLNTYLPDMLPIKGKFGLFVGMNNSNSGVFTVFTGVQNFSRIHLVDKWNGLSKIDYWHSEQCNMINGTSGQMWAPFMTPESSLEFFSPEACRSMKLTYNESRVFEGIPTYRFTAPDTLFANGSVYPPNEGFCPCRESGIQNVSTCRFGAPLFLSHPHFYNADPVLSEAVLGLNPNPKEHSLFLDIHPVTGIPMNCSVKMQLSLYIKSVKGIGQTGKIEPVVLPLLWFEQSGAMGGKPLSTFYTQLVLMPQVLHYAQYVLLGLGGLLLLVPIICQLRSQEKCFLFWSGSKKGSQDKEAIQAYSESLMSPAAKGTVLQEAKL
Assay: Uptake of DiI from DiI-HDL by ldlA[mSR-BI] cells (high throughput screen and concentration dependence)
Format: cell-based

[1] = DiI uptake from DiI-HDL, compounds at nominal 10 micromolar, ldlA[mSR-BI] cells

| Compound | ENDOHDL Test 1 | ENDOHDL Test 2 | ENDOHDL Test 1 [1] | ENDOHDL Test 2 [1] |
| --- | --- | --- | --- | --- |
| CC1(C)C(C(=O)OCC(=O)c2ccc([N+](=O)[O-])cc2)CCC1C(=O)OCC(=O)c1ccc([N+](=O)[O-])cc1 (stereo not drawn) [MIT 9952-129] | 0.57 | 0.54 |  |  |
| COC(=O)/C=C1/Nc2ccccc2OC1=O [MIT 9952-151] | 1.22 | 1.36 |  |  |
| Cc1cc(=O)oc2cc(OCc3ccccc3)c(OCc3ccccc3)cc12 [MIT 9952-218] | 0.64 | 0.33 |  |  |
| O=C(Nc1cc(Sc2nc3ccccc3s2)cc([N+](=O)[O-])c1)c1ccc(F)c(F)c1 [MIT 9952-231] | 0.46 | 0.54 |  |  |
| COc1ccc(C(=O)NC(Nc2cccc3ccccc23)C(Cl)(Cl)Cl)cc1 (stereo not drawn) [MIT 9952-131] | 0.56 | 0.52 |  |  |
| CC(=O)Oc1ccc2ccccc2c1C=O [MIT 9952-13] | 0.55 | 0.67 |  |  |
| O=C(N/N=C\c1ccccc1O)c1ccc(O)cc1 [MIT 9952-170] | 0.54 | 0.54 |  |  |
| O=C(Nc1ccc(Cl)cc1)c1ccc(N2C(=O)c3ccc(C(=O)Nc4ccc(Cl)cc4)cc3C2=O)cc1 [MIT 9952-161] | 1.37 | 1.5 |  |  |
| COc1ccc(OC)c(NC(=O)c2cc([N+](=O)[O-])c(C)c([N+](=O)[O-])c2)c1 [MIT 9952-233] | 0.59 | 0.33 |  |  |
| CCn1c2ccccc2c2cc(/C=N/NC(N)=S)ccc21 [MIT 9952-211] | 0.59 | 0.56 |  |  |
| O=C(Nc1nc(-c2ccccc2)cs1)Nc1ccc(Cl)cc1Cl [MIT 9952-232] | 0.61 | 0.56 |  |  |
| O=C(Cl)c1ccccc1NS(=O)(=O)/C=C/c1ccccc1 [MIT 9952-110] | 1.17 | 1.33 |  |  |
| CN(C)/C=N/C(=O)CN1CCCC1=O [MIT 9952-148] | 1.44 | 1.32 |  |  |
| COc1ccc(COCC(Cl)CN2CCCCC2)cc1OC.Cl (stereo not drawn) [MIT 9952-159] | 1.28 | 1.23 |  |  |
| C/C(CCS(=O)(=O)c1ccc(C)cc1)=N\NC(N)=S [MIT 9952-225] | 0.56 | 0.59 |  |  |
| O=[N+]([O-])c1ccc(N/N=C(/CS(=O)(=O)c2ccccc2)c2ccccc2)c([N+](=O)[O-])c1 [MIT 9952-200] | 0.73 | 0.8 |  |  |
| COc1ccc2[nH]cc(CCN3CCOC3=O)c2c1 [MIT 9952-205] | 1.08 | 1.0 |  |  |

Other lines, results leading:

| ENDOHDL Test 1 | ENDOHDL Test 2 | ENDOHDL Test 1 [1] | ENDOHDL Test 2 [1] | Compound |
| --- | --- | --- | --- | --- |
| 0.69 | 1.01 |  |  | C/C(=N\NC(=O)COc1ccc(I)cc1)c1cccs1 [MIT 9952-254] |
| 0.57 | 0.38 |  |  | Cc1cccc(C(=O)Nc2cccc(-c3nc4c(C)cccc4o3)c2)c1 [MIT 9952-236] |
| 0.56 | 0.52 |  |  | Cc1ccc2c(c1)/C(=C/c1ccc([N+](=O)[O-])cc1)c1cccnc1-2 [MIT 9952-246] |
|  |  | 0.56 | 0.46 | CCOC(=O)C1=C(C)NC(=S)N(C=O)C1c1ccccc1 (stereo not drawn) [MIT 9952-297] |
|  |  | 0.65 | 0.54 | O=C(Nc1ccc(-c2nc3ccccc3s2)cc1)c1ccc(Cl)cc1Cl [MIT 9952-284] |
|  |  | 0.69 | 0.67 | Cc1ccc(NC(=S)NC(NC(=O)c2ccccc2Cl)C(Cl)(Cl)Cl)cc1 (stereo not drawn) [MIT 9952-332] |
|  |  | 0.6 | 0.64 | COc1cccc(C(=O)Nc2nc3ccc(Cl)cc3s2)c1 [MIT 9952-289] |
| 1.26 | 1.26 |  |  | C/C(=N\NC(=O)c1ccccc1)c1ccccc1C(=O)O [MIT 9952-242] |
|  |  | 0.57 | 0.53 | COc1cccc(C(=O)N/N=C/c2ccc(Cl)cc2Cl)c1 [MIT 9952-285] |
|  |  | 0.4 | 0.45 | O=C(NC(NC(=S)Nc1cccc([N+](=O)[O-])c1)C(Cl)(Cl)Cl)C(c1ccccc1)c1ccccc1 (stereo not drawn) [MIT 9952-327] |
